# Patent US12194024B2, “Pharmaceutical composition of MDM2 inhibitor and use thereof for preventing and/or treating disease” (ASCENTAGE PHARMA (SUZHOU) CO., LTD., priority 2019, dated 2025)
# What was measured:
# [1] = system: human MOLM-13 (AML) xenograft tumor; assay: Systemic MOLM-13 AML mouse xenograft model; format: in vivo, NOD SCID mice; conditions: Compound 2 30 mg/kg q2d 21 days, Azacitidine 1.5 mg/kg qd seven days
# Source text: The comparison among three or more groups uses one-way ANOVA. If the F value has a significant difference, multiple comparisons should be carried out after the ANOVA analysis. All data analysis uses SPSS 18.0. Prism (the sixth version) is used for graphing. Attune N×T flow cytometer (Thermo Fisher Scientific Inc.) is used for analyzing tumor infiltrating lymphocytes. Data acquisition and analysis use Analyst Software 1.6.3 work station (AB sciex, Ontario, Canada). For MOLM-13 systemic model, the death date of the last mouse is used for analyzing the median total survival and generating the Kaplan-Meier curve. Logarithmic rank test and Bonferroni multiple test are used for comparing the survival curves of different treatment groups.
# For systemic AML model, six- to eight-week-old female NOD SCID mice are pretreated with cyclophosphamide (150 mg/kg, intraperitoneally) continuously for two days. Then the MOLM-13 systemic AML xenograft model is established by inoculating 1×10^7 cells into the caudal vein intravenously.
# For systemic AML model, the six- to eight-week-old female NOD SCID mice are pretreated with cyclophosphamide (150 mg/kg, intraperitoneally) continuously for two days. Then the MOLM-13 systemic AML xenograft model is established by inoculating 1×10^7 cells into the caudal vein intravenously. Cells grow 3 days, then are randomly divided into groups for treatment of a single drug or drugs in combination using a carrier, compound 2 (50 mg/kg, is taken orally each day for 7 days), and Aza (1.5 mg/kg, intravenous injection each day for 7 days). In the treatment process and after the treatment is completed, the mice are monitored for the occurrence of hind leg paresis (HLP) or the abdominal swelling caused by disease progression, and a body weight loss >20%.
# A systemic MOLM-13 mouse xenograft model is established, and the anti-leukemia effect of compound 2 following the administration regimen of 80 mg/kg dosage, orally (po), and once every two days (q2d) is evaluated in the model (corresponding to the number 57 regimen in table 7). The experiment has two groups, and 15 animals in each group, in one group, 5 animals are used for the analysis of the proportion of CD45+ AML cells, and the remaining 10 animals are used for recording the living condition of the mice. 18 days after the cell inoculation, according to the experimental regimen, 5 animals are selected randomly from each group, bone marrow and spleen are collected, the proportion of human CD45+ AML cells in bone marrow and spleen is analyzed using flow cytometry to evaluate the disease burden of animals.
# Systemic tumor model is established by inoculating MOLM-13 tumor cells through caudal vein, the administration starts on the third day after the cell inoculation, and the day of the administration is defined as the first day. Compound 2 is administered following 30 mg/kg, q2d regimens for 21 days. Azacitidine is administered following 1.5 mg/kg, qd regimens for seven days (corresponding to the number 81 regimen in table 7). […]
# [2] = system: human OCI-AML-3 AML xenograft tumor; assay: Subcutaneous OCI-AML-3 AML mouse xenograft tumor model; format: in vivo, NOD SCID mice; conditions: Compound 2 50 mg/kg orally q2d, Azacitidine 2 mg/kg i.v., Decitabine 1 mg/kg i.v.; for Relative tumor volume (RTV, Mean ± SEM): d15, vehicle 16.5 ± 4.1
# Method: For subcutaneous model, OCI-AML-3 cells (1×10^6) are injected subcutaneously into the right side of the abdomen of 6- to 8-week-old mice. About 10 days after the cell inoculation, the mice are randomly divided into groups based on the primary tumor size achieving about 100-150 mm^3 of average tumor volume.
# The tumor diameter is measured twice using a vernier caliper each week. The computational formula of the tumor volume (TV) is: TV=a×b^2/2. In the computational formula, a and b represent the length and width of the tumor measurement respectively. The computational formula of the relative tumor volume (RTV) is: RTV=VtN1. In the computational formula, V1 is the tumor volume when being grouped and administered, and Vt is the tumor volume when being measured at a certain day after the administration.
# The tumor remission rate (%) is derived by dividing the number of SD (Stable Disease), PR (Partial response) and CR (Complete response) appearing in the tumor bearing mice after treatment by the total number of mice in the group×100%.
# The synergistic analysis uses the following formula (reference can be made to Gould S E et al., Translational value of mouse models in oncology drug development, Nature medicine, 2015 21, 431-439): synergistic factor=((A/C)×(B/C))/(AB/C); A=RTV value of the A drug alone group; B=RTV value of the B drug alone group; C=RTV value of the vehicle control group, AB=RTV value of the AB combined group (Clarke R., Issues in experimental design and endpoint analysis in the study of experimental cytotoxic agents in vivo in breast cancer and other models[J], Breast Cancer Research & Treatment, 1997, 46 (2-3):255-278).
# For subcutaneous model, OCI-AML-3 cells (1×10^6) are injected subcutaneously into the right side of the abdomen of 6- to 8-week-old mice. About 10 days after the cell inoculation, the mice are randomly divided into groups based on the primary tumor size achieving about 100-150 mm^3 of average tumor volume. Compound 2 is administered alone or in combination (50 mg/kg, is taken orally, every other day for 15 days) and Aza (2 mg/kg, intravenous injection each day for 7 days) or Dec (1 mg/kg, intravenous injection each day for 7 days). The tumor volume is measured twice using a vernier caliper each week and is represented by following formula in mm^3: V=0.5a×b^2; in the formula, a and b are the long diameter and short diameter of the tumor respectively. […] RTV=VtN1; wherein V1 and Vt are the average tumor volume on the first day (day 1) in the treatment, and the average tumor volume of a certain time point (day t) respectively.
# Azacitidine is administered following 2 mg/kg, caudal vein injection, qd×7d, drug withdrawal 7 days, then qd×2 day regimens for seven days (corresponding to the number 68 regimen in table 7).
# MOLM-13 cells = assay: Expression of proteins in treated MOLM-13 cells; format: cell-based, human; conditions: for γ-H2AX expression (DNA damage): MOLM-13 cells
# Source text: Therefore, we evaluate the protein changes involving these identified signaling pathways. […] DEC and AZA are low methylation drugs inducing low DNA methylation in cells by inhibiting the function of methyltransferase I (DNMT1). Many studies indicate that DNMT1 forms a complex with UHRF1 and HDAC1 proteins in tumor cells, which binds and inhibits the expression of various […] (such as P16INK4A, P14ARF and P21) promoters, and promotes tumor growth. Cytarabine is a pyrimidine nucleoside analogue, which induces DNA damage, further activates ATM/ATR-P53-P21 signal cascades, inhibits DNA synthesis in cells and interferes with cell proliferation.
# Based on above evidences, we further detect the regulating effect of treatment with compound 2 in combination with low methylation drugs DEC and AZA or drug Ara-C on P53, demethylation marker protein DNMT1 and common target protein P21, and the expression of apoptosis marker protein, lytic PARP-1. […] RG-7388 is introduced as the comparison of present experiment. […] DNA damage further activates P53 and P21.
# B-actin is used for confirming that the loaded proteins are the same. […] Its results represent three independent results.
# [3] = MOLM-13, DEC 100 nM, AZA 3 μM, 48 hours
SMILES,Median survival ([1]; vehicle 16 days),Prolonged survival ([1]; versus vehicle),T/C value (%) (d15) [2],"Relative tumor volume (RTV, Mean ± SEM) [2]",expression of DNMT1 (MOLM-13 cells; [3]),γ-H2AX expression (DNA damage) (MOLM-13 cells),"expression of P53 and P21 proteins (MOLM-13 cells; MOLM-13, compound 2 40 nM, RG-7388 40 nM, DEC 100 nM, AZA 3 μM, 48 hours)"
Nc1ncn([C@@H]2O[C@H](CO)[C@@H](O)[C@H]2O)c(=O)n1 [Azacitidine],24 days,8 days,56.6%,9.3 ± 3.2,almost completely eliminates DNMT1,increased expression of γ-H2AX,
Nc1ccn([C@@H]2O[C@H](CO)[C@@H](O)[C@@H]2O)c(=O)n1 [Cytarabine],,,,,,increased expression of γ-H2AX,significant up-regulation effect on P21
Nc1ncn([C@H]2C[C@H](O)[C@@H](CO)O2)c(=O)n1 [Decitabine],,,64.9%,10.7 ± 1.7,almost completely eliminates DNMT1,increased expression of γ-H2AX,
